Laboratory results taken from US7208528B1, “Polyamine analogues as therapeutic and diagnostic agents” (MediQuest Therapeutics, Inc., priority 1997, dated 2007).

Legend:
MDA cells [1] = assay: Intracellular polyamine levels in MDA cells after long term treatment; format: cell-based, human; details: DFMO alone, one and three weeks
Excerpt: We examined the intracellular polyamine levels in MDA cells after 6 and 20 days of growth in the presence of polyamine synthesis inhibitor or transport inhibitor, or both.

[2] = tested on: polyamine transport system of MDA cells; assay: Transport Km and Vmax with 3H-SPD after long term treatment of MDA cells; format: cell-based, human; details: DFMO in the presence of SPD
Excerpt: We wished to determine the effects of long term treatment with DFMO, 1202, or both, on polyamine transport characteristics.

[3] = tested on: polyamine transport system of MDA cells; assay: SPD transport inhibition and recovery after washing in MDA cells; format: cell-based, human; details: 3 day incubation
[4] = tested on: wild-type L1210 cancer cells; details: cited from earlier work
[5] = tested on: MDA breast carcinoma cells; assay: Rescue from DFMO-induced growth inhibition of MDA cells without added polyamines, six day growth assay; format: cell-based, human; details: Homo sapiens, Breast carcinoma cell, 144 h; 230 μM, no additional polyamines, six day growth assay; read-out: cell number, % of control
Procedure: An additional series of spermine amides were evaluated to extend the structure-activity relationship around this polyamine transport target.
Growth assays were done over a six day period in order to allow for polyamine depletion within cells. When synthesis of polyamines is inhibited, cells compensate by increasing transport of extracellular polyamines into the cell. Over the time course of the assay, polyamines in the culture media may be depleted resulting in growth inhibition.

[6] = tested on: mutant L1210 leukemia cells deficient in polyamine uptake; details: cited from earlier work
MDA-MB-231 cells = assay: Growth assay of MDA-MB-231 cells with ODC inhibitor (DFMO) and 1 μM spermidine; details: alone, in the presence of 1 μM SPD
Procedure: The estrogen insensitive human breast carcinoma MDA-MB-231 cell line as the primary cell line in the screen. […] In order to optimize the screen for polyamine transport inhibition, 1.0 μM spermidine was added to media to reverse the effects of ODC inhibitors. The assay was also performed over seven days because this allows for the greatest dynamic range in cell growth due to the mechanism of ODC inhibitors. Cells need to divide several times before the intracellular level of polyamines begin to decrease to growth inhibitory levels.
Compounds were tested for their ability to inhibit cell growth in the presence of 1 μM spermidine and 230 μM ODC inhibitor for the MDA-MB-231 cells or 1 mM ODC inhibitor for the PC3 cells.
In our six day growth assays, 1202 was tested at increasing concentrations with the optimal concentration of DFMO.

MDA cells [7] = assay: Long term (three week) growth of MDA cells with DFMO, 1202 or both; format: cell-based, human; details: DFMO 500 μM or 1202 60 μM alone, three weeks
[8] = mice inoculated with mutant L1210 cells

In the case of `NCCC[C@](N)(C(=O)O)C(F)F` [DFMO, α-difluoromethylornithine], the “decrease in PUT levels” value (MDA cells [1]) is reported as 69–86%, the “change in Vmax” value [2] is reported as “no change” and the “up-regulation of SPD transport” value [3] is reported as 3 fold. The “increase in median survival time” value ([4]; mice inoculated with the parental cell line) was 22%, the time to death ([4]; wild-type L1210, treated with DFMO) was 12 days and the activity at 230 µM [5] was 35%. The survival ([6]; PAT-deficient L1210 cells, DFMO) was over 60 days, the “increase in median survival time” value [6, 8] was 87% and the mice cured [6, 8] was 13 of 40. The “effect on growth of single agent” value (MDA-MB-231 cells) was “minimal” and the “growth rate with single compound” value (MDA cells [7]) was “little difference in growth rate”.
